Measured values reported in paper PMC5913645, “Methyl phenlactonoates are efficient strigolactone analogs with simple structure” (Journal of Experimental Botany, 2017).

Legend:
OsD14 = target: T1, OsD14 (Oryza sativa subsp. japonica, UniProt Q10QA5); test: In vitro hydrolysis assay, OsD14; format: biochemical, rice; conditions: 10 µM substrate, 50 µg ml^−1 protein, 37 °C, HPLC
T1 construct: made in house; host or cells: E. coli BL21 (DE3)
T1 sequence (Q10QA5 1-318): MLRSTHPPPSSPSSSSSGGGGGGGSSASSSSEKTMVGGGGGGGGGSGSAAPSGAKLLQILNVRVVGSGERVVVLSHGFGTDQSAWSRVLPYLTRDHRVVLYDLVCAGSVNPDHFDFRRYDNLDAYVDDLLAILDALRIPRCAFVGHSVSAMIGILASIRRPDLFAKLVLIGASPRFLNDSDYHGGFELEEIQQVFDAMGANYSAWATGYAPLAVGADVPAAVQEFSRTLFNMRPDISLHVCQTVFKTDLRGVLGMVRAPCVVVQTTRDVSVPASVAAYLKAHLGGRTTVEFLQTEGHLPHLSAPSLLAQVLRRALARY
Description: Striga hermonthica ShHTL7 cDNA was used, GenBank accession KR013127, kindly provided by Tsuyoshi Ota, The University of Tokyo, Japan. Arabidopsis D14 (AtD14) cDNA, GenBank accession AY097402, was synthesized and cloned into pUC57 (GenScript). ShHTL7 and OsD14 cDNAs were amplified by RT-PCR using the primers shown in Supplementary Table S2, digested with BamHI and XhoI, and ligated into BamHI/XhoI-digested pGEX-6P-1 expression vector (GE Healthcare). Integrity of plasmids was confirmed by sequencing (KAUST Bioscience Core Lab). The plasmids were then transformed into E. coli BL21 (DE3) cells. The cells were grown in LB broth containing ampicillin ([…]), incubated at 37 °C until OD600 of 0.6 and induced with 0.1 mM isopropyl-β-D-thiogalactopyranoside at 16 °C for 16 h. Harvested cells were resuspended in lysis buffer: 50 mM Tris–HCl (pH 8.0), 200 mM NaCl, 0.5% Tween-20 and 2 mM dithiothreitol (DTT). After sonication on ice for 10 min, the lysate was centrifuged at 75 000 g for 30 min at 4 °C. Supernatant was allowed to bind to glutathione–sepharose beads (GE Healthcare) for 2 h at 4 °C, washed 3 times with buffer (50 mM Tris-HCl (pH 8.0), 200 mM NaCl, 2 mM DTT), and eluted by cleaving the GST moiety with PreScission™ Protease (GE Healthcare) at 4 °C overnight. Eluted protein was further purified by gel filtration using a HiLoad 16/60 Superdex200 prep grade column (GE Healthcare) on an AKTA prime system (GE Healthcare) in gel filtration buffer (10 mM HEPES pH 7.5, 50 mM KCl and 2 mM DTT). Protein eluted as a sharp single peak and purity was judged by 4–15% SDS-PAGE (Bio-Rad). Purified protein was concentrated using an Amicon 10K filter unit (Merck Millipore) and stored at −80 °C until use. A similar expression and purification protocol was followed for OsD14 protein, except that OsD14 was eluted from glutathione resins using 0.2 mM reduced glutathione (Sigma-Aldrich) without cutting the GST tag.
The hydrolysis of GR24 and MPs by ShHTL7/OsD14 was performed in a total volume of 0.5 ml of phosphate-buffered saline containing 10 µM of substrate. Purified ShHTL7/OsD14 was added at a concentration of 50 µg ml^−1 and incubated for the indicated time at 37 °C. After adding 1-indanol (10 µl of a 2.5 mg ml^−1 solution in methanol), as internal standard, solutions were filtered and transferred to HPLC vials. Hydrolysis of substrates was monitored by HPLC analysis using a Zorbax Eclipse Plus C18 column (3.5 µm, 2.1 × 150 mm), eluted by a gradient from 10% to 90% acetonitrile in water within 15 min, keeping the final condition for 4 min. […] Eluted compounds were detected using a diode array detector. Amounts of remaining substrates were determined by calculating corresponding peaks, in comparison with an internal standard.

S. hermonthica seeds = test: Striga hermonthica seed germination bioassay; format: in vivo; conditions: for EC50: Striga hermonthica, concentrations 10^–5 to 10^–12 M
Protocol: Parasitic weed seeds’ (S. hermonthica and P. ramosa) germination activity was studied as described previously ([Jamil et al., 2012]). Six pre-conditioned seed discs were placed in a 90 mm Petri dish containing a filter paper ring wetted with 0.9 ml sterile MilliQ water. Then 50 μl of SL analog solution (10^–5–10^–12 M) was applied on each of the six discs, for each concentration. GR24 solutions with equal concentrations and sterile MilliQ water were included as a positive and negative control, respectively. After application, seeds of S. hermonthica and P. ramosa were incubated in dark at 30 °C for 2 d and at 25 °C for 4 d, respectively. Germination (seeds with radicle emerging through the seed coat) was scored under a binocular microscope, and germination rate (%) was calculated. Statistical analyses were carried out using the statistical software package R (version 3.2.2). Dose–response curves and half-maximum effective concentrations (EC50) were calculated to determine optimum amount of MPs. The synthetic strigolactone analog GR24 was used as reference to estimate efficacy of selected compounds. EC50 and estimated response were calculated using the drc package (https://cran.r-project.org/web/packages/drc/) with a four parameter logistic curve (dose–response curve) ([Ritz and Streibig, 2005]).

Arabidopsis seedlings = test: Arabidopsis primary root length; format: in vivo; conditions: 1.0 μM
Protocol: Sterilized Arabidopsis seeds were sown on half-strength MS (with 0.5% sucrose+1% agar, 0.5 g l^−1 MES, pH 5.7) plates supplemented with GR24 or MPs (at 1.0 μM). Plates were stored at 4 °C in darkness for 3 d and then vertically grown at 22 °C in a Percival incubator under long day condition (16 h at 22 °C/8 h at 16 °C day/night, 60% relative humidity, 60–70 μmol m^−2 s^−1 white light) for 8 d. For determining the effect on lateral root density and primary root length, at least 30 seedlings were measured using ImageJ software after scanning roots.

CC1=CC(OC=C2C(=O)OC3c4ccccc4CC23)OC1=O (stereo not shown) [GR24, reference compound]
hydrolysis rate by OsD14 (rank order) (OsD14): highest hydrolysis rate with MP1, followed by MP7, GR24, and finally MP3
EC50 (S. hermonthica seeds): 0.091 nM

COC(=O)/C(=C/OC1C=C(C)C(=O)O1)c1ccc([N+](=O)[O-])cc1 (stereo not shown) [MP1, (E)-methyl 3-(4-methyl-5-oxo-2,5-dihydrofuran-2-yloxy)-2-(4-nitrophenyl)acrylate]
hydrolysis rate by OsD14 (rank order) (OsD14): highest hydrolysis rate with MP1, followed by MP7, GR24, and finally MP3
increase in primary root length (Arabidopsis seedlings): most active compound
S. hermonthica germination rate (S. hermonthica seeds; 1.0 μM): 75%
EC50 (S. hermonthica seeds): 1.5 nM
Striga germination activity, times weaker than GR24 (S. hermonthica seeds; from EC50 values): around 17 times

COC(=O)/C(=C/OC1C=C(C)C(=O)O1)c1ccccc1 (stereo not shown) [MP3, (E)-methyl 3-(4-methyl-5-oxo-2,5-dihydrofuran-2-yloxy)-2-phenylacrylate]
hydrolysis rate by OsD14 (rank order) (OsD14): highest hydrolysis rate with MP1, followed by MP7, GR24, and finally MP3
increase in primary root length (Arabidopsis seedlings): weaker activity than GR24 and MP8
EC50 (S. hermonthica seeds): 87 nM

COC(=O)/C(=C/OC1C=C(C)C(=O)O1)c1ccc(Cl)cc1 (stereo not shown) [MP7]
hydrolysis rate by OsD14 (rank order) (OsD14): highest hydrolysis rate with MP1, followed by MP7, GR24, and finally MP3
increase in primary root length (Arabidopsis seedlings): more efficient than GR24
germination activity, order among the chlorophenyl compounds (S. hermonthica seeds; species not given): highest germination activity with MP7 (Cl in para position) followed by MP9 (ortho position) and MP8 (meta position)
